In ChEMBL document CHEMBL1155150 (Antimicrob Agents Chemother, 2007):
≈ marks a conversion by molar mass, not a printed value.

How the values were obtained:
[1] = system: Homo sapiens; assay: Free Cmax in human at 500 mg, po; type: ADME, organism-based; details: in vivo
[2] = system: Yersinia pestis; assay: Antibacterial activity against Yersinia pestis delta CO92 by broth macrodilution method; type: functional
[3] = system: Homo sapiens; assay: Free AUC (0 to 24 hrs) in human plasma at 500 mg, po; type: ADME, organism-based; details: in vivo
[4] = Half life in human plasma at 500 mg, po; type: ADME, organism-based
[5] = system: Homo sapiens; assay: Free Cmax in human at 1 g, iv; type: ADME, organism-based; details: in vivo
[6] = Half life in human plasma at 1 g, iv; type: ADME, organism-based
[7] = system: Homo sapiens; assay: Free Cmin in human at 1 g, iv; type: ADME, organism-based; details: in vivo

**Q.** Which results are given for `C[C@H]1COc2c(N3CCN(C)CC3)c(F)cc3c(=O)c(C(=O)O)cn1c23.C[C@H]1COc2c(N3CCN(C)CC3)c(F)cc3c(=O)c(C(=O)O)cn1c23.O` [LEVOFLOXACIN]?
**A.** fCmax [1]: 3.6 mg/L; MBC [2]: 0.125 µg/mL; MIC [2]: 0.06 µg/mL; fAUC [3]: 36000 ng·h/mL; half-life [4]: 7 h

**Q.** Which results are given for `[H]/N=C(/N)N[C@H]1[C@H](O)[C@@H](O)[C@H](O[C@@H]2O[C@@H](C)[C@](O)(C=O)[C@H]2O[C@@H]2O[C@@H](CO)[C@H](O)[C@@H](O)[C@@H]2NC)[C@@H](N/C(N)=N\[H])[C@@H]1O` [STREPTOMYCIN]?
**A.** MBC [2]: 2 µg/mL (≈ 3.44 µM); MIC [2]: 2 µg/mL (≈ 3.44 µM); fCmax [5]: 38 mg/L; half-life [6]: 2.5 h; fCmin [7]: 2 mg/L
